IC50 and cytotoxicity data for 16 molecules are collected here from patent publication US12187758B2 (ROME Therapeutics, Inc., priority 2022, dated 2025).

The IC50 is the concentration that gives 50% inhibition. A lower IC50 goes with greater potency.

Common to all, as to assay type: cell-based
The nature of data set [1]: Mitochondria toxicity assay with PC3 cells, in-cell ELISA COX-1. The following applies: 5 days treatment. A digest of the protocol:
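This in-cell ELISA was run on fixed, permeabilized PC3 cells after 5-day exposure to titrated compound, with cytotoxicity measured on a duplicate plate. Results are reported as categories A (<1.0 μM) to E (>100.0 μM).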
A general note: In an ELISA, binding on a coated surface is turned into a signal by an enzyme label.

The subject of another data set is PC3 cells. Nature of the data set: Mitochondria toxicity assay with PC3 cells, cytotoxicity (Cell Titer Glo). The note with it: Homo sapiens, PC-3, 120 h, 5 days treatment. The procedure, abridged: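 PC3 cells in F-12K with 10% FBS exposed to a compound dose titration for 5 days at 37° C, 5% CO2. Viability by Cell Titer Glo luminescence after 30 min at room temperature; values binned A (<1.0 μM) to E (>100.0 μM).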

Data set [2] relates to phosphorylated TANK-binding kinase 1 (pTBK1). Kind of data set: UVB-induced pTBK1 in HaCaT cells. The following applies: for IC50: Homo sapiens, light or radiation study, pTBK1 response curves, 72 hours compound treatment, UVB. As for the experimental part:
pTBK1 is an important signaling molecule in regulating inflammatory responses. HaCaT cells were plated in 6-well plates at a density of ˜100 k/well in HaCaT media (DMEM, optimized 1× (Addex Bio)+ 1% pen strep (Gibco)^+ 5% heat inactivated fetal bovine serum (Gibco)). The cells were then cultured at 37° C. overnight. The next day, the cells were treated with the test compounds. Each test compound was diluted and added to media aliquots to provide desired concentrations. To add the test compound+media mixture, an equivalent amount of media from each well was aspirated and then replenished with the media dosed with the test compound. The cells were then cultured for an additional 72 hours with compound treatment prior to UVB exposure.
The media was then aspirated from the wells, with the remaining cells at least 80% confluent in each well. One mL of PBS was then added to each well, and the plate was then placed under a UVB lamp. A UVB sensor was positioned near the plate to register the plate's exposure. The cells were exposed to the UVB light until they reached 0.1 mJ/cm2. Then the plate was covered and transferred to a sterile hood for processing.
The PBS was aspirated out of the wells, and the wells were replenished with 3 mL fresh culture media. The cells were then cultured for an additional 24 hours, and samples were processed 24 hours post-UVB exposure. To process the samples, the media was aspirated, the plate placed on ice, and the cells washed with cold PBS, which was then aspirated off. Another 1 mL of cold PBS was added to each well. The cells were then scraped in the cold PBS solution and transferred to conical tubes on ice. The cells were then spun at ≥1000 RCF at 4° C. for 5 minutes. The cells were then resuspended in 1 mL of cold PBS and transferred to a microcentrifuge tube. The cells were spun at ≥1000 RCF at 4° C. for another 5 minutes, and the PBS was aspirated off. The cell pellet was prepared for lysis.
A RIPA lysis buffer (#BP-115, Boston BioProducts) was added to a Halt protease and […] inhibitor cocktail (#78440, ThermoFisher), and the mixture was cooled on ice. About 30 μL of the lysis buffer mix was added to the cells. The samples were briefly vortexed and then incubated on ice for at least 15 minutes. The cells were then spun≥1000 RCF at 4° C. for 5 minutes and the supernatant was transferred to a clean tube. The protein concentration of the cell lysate was measured using Pierce™ Rapid Gold BCA Protein Assay Kit #AF3225 (ThermoFisher). ELISA analysis was run on select samples using one of the following kits: • a. FastScan™ Phospho-TBK1/NAK (Ser172) ELISA Kit #46948 (Cell Signaling Technologies) • b. FastScan™ Total TBK1/NAK ELISA Kit #15816 (Cell Signaling Technologies) • c. FastScan™ Phospho-STING (Ser366) ELISA Kit #82083 (Cell Signaling Technologies) • d. FastScan™ Phospho-IRF-3 (Ser396) ELISA Kit #50386 (Cell Signaling Technologies) • e. FastScan™ Total IRF-3 ELISA Kit #29771 (Cell Signaling Technologies) • f. Phospho-NAK/TBK1 (S172) ELISA Kit (ab279952) (Abcam) • g. Phospho-IRF3 (S386) ELISA Kit (ab279833) (Abcam) Part II—Results
In the table “A” represents values≤0.50 μM; “B” represents values from >0.50 μM to ≤2.0 μM; “C” represents values from >2.0 μM to ≤5.0 μM; “D” represents values from >5.0 μM to ≤10 μM; and “E” represents values>10 μM.

Regarding `Nc1nc(=O)n([C@@H]2O[C@@](CO)(CF)[C@@H](O)[C@@H]2O)cc1F` [Compound 72, 4-amino-5-fluoro-1-((2R,3S,4S,5R)-5-(fluoromethyl)-3,4-dihydroxy-5-(hydroxymethyl)tetrahydrofuran-2-yl)pyrimidin-2(1H)-one], the results for the IC50 (in data set [1]; in the data set with PC3 cells; in data set [2]) were 50 to 100 µM, 50 to 100 µM and 5 to 10 µM, respectively.
On to `Nc1ccn([C@H]2C[C@H](O)[C@](CO)(C3CC3)O2)c(=O)n1` [Compound 16, 4-amino-1-((2R,4S,5R)-5-cyclopropyl-4-hydroxy-5-(hydroxymethyl)tetrahydrofuran-2-yl)pyrimidin-2(1H)-one], for which the results for the IC50 (in data set [1]; in the data set with PC3 cells; in data set [2]) were above 100 µM, above 100 µM and above 10 µM, respectively.
For the molecule `Nc1ccn([C@H]2C[C@H](O)[C@](CO)(CCl)O2)c(=O)n1` [Compound 2, 4-amino-1-((2R,4S,5R)-5-(chloromethyl)-4-hydroxy-5-(hydroxymethyl)tetrahydrofuran-2-yl)pyrimidin-2(1H)-one], the results for the IC50 (in data set [1]; with PC3 cells; in data set [2]) were below 1 µM, above 100 µM and at most 0.5 µM, respectively.
On the same counts, the results for `Nc1nc(=O)n([C@@H]2O[C@@](CO)(CCl)[C@@H](O)[C@@H]2F)cc1F` [Compound 67, 4-amino-1-[(2R,3S,4R,5R)-5-(chloromethyl)-3-fluoro-4-hydroxy-5-(hydroxymethyl)oxolan-2-yl]-5-fluoropyrimidin-2-one] are above 100 µM, above 100 µM and 2 to 5 µM.
In the same order, the values of `Nc1nc(=O)n([C@@H]2O[C@@](CO)(CF)[C@@H](O)[C@@H]2F)cc1F` [Compound 85, 4-amino-5-fluoro-1-[(2R,3S,4R,5R)-3-fluoro-5-(fluoromethyl)-4-hydroxy-5-(hydroxymethyl)oxolan-2-yl] pyrimidin-2-one] are above 100 µM, above 100 µM and 5 to 10 µM.
For `[N-]=[N+]=N[C@]1(CO)O[C@@H](n2cc(F)c(N)nc2=O)C[C@@H]1O` [Compound 61, 4-amino-1-((2R,4S,5R)-5-azido-4-hydroxy-5-(hydroxymethyl)tetrahydrofuran-2-yl)-5-fluoropyrimidin-2(1H)-one], the IC50 was above 100 µM in data set [1], above 100 µM in the data set on PC3 cells and above 10 µM in data set [2].
As for `C[C@@H]1[C@H](n2ccc(N)nc2=O)O[C@@](CO)(CCl)[C@H]1O` [Compound 12, 4-amino-1-((2R,3S,4S,5R)-5-(chloromethyl)-4-hydroxy-5-(hydroxymethyl)-3-methyltetrahydrofuran-2-yl)pyrimidin-2(1H)-one], the results for the IC50 (in data set [1]; in the data set with PC3 cells; in data set [2]) were above 100 µM, above 100 µM and above 10 µM, respectively.
For `C#C[C@]1(CO)O[C@@H](n2cnc3c(N)nc(Cl)nc32)C[C@@H]1O` [Compound 25], the IC50 in data set [1] is 50 to 100 µM; in the data set with PC3 cells, above 100 µM.
Take `Nc1nc(=O)n([C@H]2C[C@H](O)[C@](CO)(CCl)O2)cc1F` [Compound 14, 4-amino-1-((2R,4S,5R)-5-(chloromethyl)-4-hydroxy-5-(hydroxymethyl)tetrahydrofuran-2-yl)-5-fluoropyrimidin-2(1H)-one]: the IC50 in data set [1] was above 100 µM; in the data set with PC3 cells, above 100 µM; in data set [2], 0.5 to 2 µM. Moreover, the cytotoxicity at concentrations in data set [2] is at least 30 µM.
Take `CC[C@]1(CO)O[C@@H](n2ccc(N)nc2=O)C[C@@H]1O` [Compound 44, 4-amino-1-((2R,4S,5R)-5-ethyl-4-hydroxy-5-(hydroxymethyl)tetrahydrofuran-2-yl)pyrimidin-2(1H)-one]: the half-maximal inhibitory concentration (IC50) in data set [1] was above 100 µM; in the data set with PC3 cells, above 100 µM; in data set [2], above 10 µM.
`CC[C@]1(CO)O[C@@H](n2ccc(N)nc2=O)[C@@H](F)[C@@H]1O` [Compound 51, 4-amino-1-((2R,3S,4R,5R)-5-ethyl-3-fluoro-4-hydroxy-5-(hydroxymethyl)tetrahydrofuran-2-yl)pyrimidin-2(1H)-one]: the IC50 in data set [1] was 10 to 50 µM; with PC3 cells, above 100 µM; in data set [2] it was above 10 µM.
On the same counts, the results for `Nc1nc(=O)n([C@H]2C[C@H](O)[C@](CO)(CBr)O2)cc1F` [Compound 88, 4-amino-1-((2R,4S,5R)-5-(bromomethyl)-4-hydroxy-5-(hydroxymethyl)tetrahydrofuran-2-yl)-5-fluoropyrimidin-2(1H)-one] are 10 to 50 µM, above 100 µM and above 10 µM.
On the same counts, the results for `C[C@@H]1[C@H](n2ccc(N)nc2=O)O[C@](C)(CO)[C@H]1O` [Compound 19, 4-amino-1-((2R,3S,4S,5R)-4-hydroxy-5-(hydroxymethyl)-3,5-dimethyltetrahydrofuran-2-yl)pyrimidin-2(1H)-one] are 10 to 50 µM, 50 to 100 µM and above 10 µM.
On the same counts, the results for `Nc1ncnc2c1ncn2[C@H]1C[C@H](O)[C@](CO)(CCl)O1` [Compound 15, (2R,3S,5R)-5-(6-amino-9H-purin-9-yl)-2-(chloromethyl)-2-(hydroxymethyl)tetrahydrofuran-3-ol] are above 100 µM, above 100 µM and above 10 µM.
Consider `Nc1ccn([C@@H]2O[C@@](CO)(CCl)[C@@H](O)[C@@H]2F)c(=O)n1` [Compound 40, 4-amino-1-((2R,3S,4R,5R)-5-(chloromethyl)-3-fluoro-4-hydroxy-5-(hydroxymethyl)tetrahydrofuran-2-yl)pyrimidin-2(1H)-one], for which the IC50 was above 100 µM in data set [1], above 100 µM with PC3 cells and 2 to 5 µM in data set [2].
For the molecule `CO[C@@H]1[C@H](n2ccc(N)nc2=O)O[C@@](CO)(CCl)[C@H]1O` [Compound 13, 4-amino-1-((2R,3S,4S,5R)-5-(chloromethyl)-4-hydroxy-5-(hydroxymethyl)-3-methoxytetrahydrofuran-2-yl)pyrimidin-2(1H)-one], the IC50 in data set [1] is above 100 µM; with PC3 cells, above 100 µM; in data set [2], above 10 µM.
